Results as given in patent US20060154990A1, “Use of MEK inhibitors in treating abnormal cell growth” (AGOURON PHARMACEUTICALS, INC., priority 2004, published 2006).
Values joined by “and” are separate entries in the source; they are usually repeats but may differ in a detail not shown here. Equal entries are not always repeated.

Tests used:
[1] = Maximum tolerated dose and lethality in mice
[2] = system: advanced cancer (breast, colon, NSCLC, melanoma); experiment: Phase 1/2 clinical study: tumor response (RECIST); details: for Clinical Response: individual patient

In the case of O=C(NOC[C@H](O)CO)c1ccc(F)c(F)c1Nc1ccc(I)cc1F [Compound 1, N-[(R)-2,3-dihydroxy-propoxy]-3,4-difluoro-2-(2-fluoro-4-iodo-phenylamino)-benzamide], the MTD at 14 days ([1]; BALB/c and SCID, mouse, in vivo, po) was 25 mg/kg/day and 25 mg/kg, the “deaths or weight loss” value ([1]; mice, 25 mg/kg oral daily for 14 days) was “no deaths or weight loss” and the LD10 ([1]; mice, IV regimen) was 100 mg/kg. For the same molecule, the Deaths ([1]; mice, oral daily dosing of 50 mg/kg, sixth day of treatment) was 5 out of 8, the “Clinical Response” value ([2]; 2 mg BID, colon, cell wraps: stable disease) was “stable” and the “Clinical Response” value ([2]; 2 mg BID, melanoma, cell wraps: stable disease) was “stable”. The “Clinical Response” value ([2]; 4 mg BID, lung, cell wraps: stable disease) was “stable”, the “Clinical Response” value ([2]; 4 mg BID, melanoma, cell wraps: stable disease) was “stable” and the “Clinical Response” value ([2]; 15 mg BID, breast, cell wraps: stable disease) was “stable”. For the same molecule, the “Clinical Response” value ([2]; 20 mg BID continuous, melanoma, cell wraps: stable disease) was “stable”, the “Clinical Response” value ([2]; 20 mg BID, melanoma, cell wraps: partial response) was “partial” and the “Clinical Response” value ([2]; 30 mg BID, melanoma, cell wraps: stable disease) was “stable”. The “Patients with stable disease” value ([2]; of 42 patients treated) was 10 and the Partial responses ([2]; of 42 patients treated, melanoma) was 2.
